Values of other authors as cited in patent US10654860B2, “Tricyclic rho kinase inhibitors” (BRISTOL-MYERS SQUIBB COMPANY, priority 2016, dated 2020).
Read-outs that look alike come from different tables or passages of the source.

Experiments:
neointimal formation = conditions: rats, balloon injury model; cited from earlier work
[1] = test system: spontaneously hypertensive rat, renal hypertensive rat and deoxycortisone acetate salt hypertensive rat models; conditions: cited from earlier work
[2] = test system: congestive heart failure in Dahl salt-sensitive rats; conditions: cited from earlier work
rat stroke model = conditions: cited from earlier work
[3] = test system: IL-1 beta-induced coronary stenosis; conditions: long term treatment, porcine model; cited from earlier work

| SMILES | neointimal formation (neointimal formation) | blood pressure ([1]; control rats) | blood pressure ([1]; three rat models of hypertension) | ventricular hypertrophy, fibrosis and function [2] | infarct size (rat stroke model) | neurologic deficit (rat stroke model) | coronary constrictive remodeling [3] | coronary stenosis [3] |
| --- | --- | --- | --- | --- | --- | --- | --- | --- |
| C[C@@H](N)[C@H]1CC[C@H](C(=O)Nc2ccncc2)CC1 [Example Y-27632, Y-27632] | inhibited | only a minor effect | significantly decrease | improve | – | – | – | – |
| O=S(=O)(c1cccc2cnccc12)N1CCCNCC1 [fasudil] | – | – | – | – | reduce | reduce | promote a regression | progressively reduce |
